{"source": "patent EP1982730A1", "about": "“Pharmaceutical composition comprising l-carnitine and an antagonist of the membrane adenosine receptors, derivatives and/or pharmaceutically acceptable salts thereof, and their use in the preparation of drugs with non-toxic effect to inhibit the proliferation of neoplastic cells” (Farmacetika Limited, priority 2007, dated 2008)", "key": {"[1]": {"test_system": "human peripheral blood mononuclear cells (PBMCs) in healthy volunteers", "settings": "lymphocytes from healthy volunteers stimulated with PHA; cited from earlier work"}, "[2]": {"test_system": "peripheral blood mononuclear cells (PBMC) from patients affected by chronic lymphocytic leukemia", "assay": "PHA-induced cell blast formation / proliferation (BrdU incorporation ELISA) in ex vivo PBMC cultures", "assay_type": "cell-based, human", "settings": "for % reduction in cell blast formation: PBMC stimulated with PHA 20 ug/mL", "source_text": "The protocol for isolation and treatment of cells from patients affected by chronic lymphocytic leukemia comprised the following steps:\n• Blood sample taken between 8:00 and 9:30 a.m.; • Blood sample sent to the laboratory to be processed immediately; • Evaluation of the total volume of the blood received to proceed with 1:2 dilution with sterile saline solution; • Isolation of the mononuclear cells performed by layering of the blood on a Ficoll-Paque Plus density gradient at a ratio of 1:3, ensuring that the two phases remain separate; • Centrifugation for 40 minutes at 1800 rpm at room temperature; • Recovery of the PBMC layers in the interface between the Ficoll and the plasma; • Washing in saline solution to eliminate residual Ficoll centrifuging at 1200 rpm for 7 minutes at 4°C; • Washing in RPM1 1640 medium, centrifuging at 1200 rpm for 7 minutes at 4°C; • Pellet suspension in complete medium, i.e. RPM1 1640 with the addition of L-glutamine 4mM, penicillin at 50U/ml, streptomycin […] and with 10% of FBS (fetal bovine serum); • Preparation of a 10% cell suspension with Trypan Blue dye and counting of cells under the microscope with Burker camera; cell vitality is also checked using the dye exclusion test; • Counting of the total number of cells and adjustment of the cell concentration to the required value.\nThe cells thus isolated were cultured in the complete culture medium, and a culture was prepared placing 1 mL of cell suspension in a 5 mL polypropylene […] (Falcon) to study cytokine expression and production, and 100 microL in each microplate well. To induce cell blast formation, mitogen phytohemagglutinin (PHA) (20 ug/mL (Pharmacia) selective for T-lymphocytes was added.\nThe control culture was prepared without adding any mitogenic substance.\nThe substance to be tested, i.e. L-carnitine and L-carnitine + suramin, at the desired concentration, was added both to cultures with and to those without mitogen. The cultures were incubated in an incubator at 37°C, in a humidified environment with 5% carbon dioxide added.\nEvaluation of cell proliferation and therefore of DNA synthesis by isolated and cultured PBMC was performed after stimulation with mitogen and using the Biotrak ELISA system (Amersham Biosciences Europe GmbH, Milan, Italy), based on the measure of incorporation of 5-bromo-2-deoxyuridine (BrdU), pyrimidine analog, into the newly synthesized DNA. 18 hours before the end of incubation 10 microl of culture medium containing BrdU at a final concentration of 10 micromol/L were added to the cultures. At the end of incubation the culture medium was removed by centrifuging the plates at 300 rpm for 10 minutes. Subsequently, the plates were kept in an oven at 60°C for one hour. This was followed by two incubations of 30 minutes each, first in the presence of a fixative required for cell fixation and DNA denaturation, then in the presence of a blocking buffer. After addition of the anti-BrdU antibody, combined with the enzyme peroxidase, the plates were incubated for 90 minutes, after which three washes of 5 minutes each were performed, using PBS. The substrate used for the colorimetric reaction consisted of 3,3',5,5'-tetramethylbenzidine. The reaction was blocked after 15 minutes with H2SO4 1M and the optical density was measured at a wavelength of 450 nanometers, using a plate reader spectrophotometer. The PBMC proliferation values in the different wells were expressed as optical density from which the optical density recorded in the control wells without BrdU was subtracted."}}, "data": [{"molecule": "C[N+](C)(C)C[C@H](O)CC(=O)[O-]", "note": "[Carnitine, L-carnitine]", "values": [{"measurement": "blastogenesis of T lymphocytes caused by phytohemagglutinin (PHA)", "setting": "[1]", "value": "inhibits, in a dose-dependent manner"}, {"measurement": "% reduction in cell blast formation", "setting": "[2]; Patient 1, I.S. 1.9", "value": 30, "unit": "%"}, {"measurement": "% reduction in cell blast formation", "setting": "[2]; Patient 2, I.S. 3.4", "value": 65, "unit": "%"}, {"measurement": "% reduction in cell blast formation", "setting": "[2]; Patient 3, I.S. 4.4", "value": 40, "unit": "%"}, {"measurement": "% reduction in cell blast formation", "setting": "[2]; Patient 4, I.S. 1.6", "value": 24.4, "unit": "%"}, {"measurement": "% reduction in cell blast formation", "setting": "[2]; Patient 5, I.S. 2.3", "value": 16.5, "unit": "%"}, {"measurement": "proliferation induced with PHA", "setting": "[2]; all patients, summary in words", "value": "reduces the proliferation induced with PHA in all patients"}]}]}
